# From paper PMC11127902, “Rescuing tri-heteromeric NMDA receptor function: the potential of pregnenolone-sulfate in loss-of-function GRIN2B variants” (Cellular and Molecular Life Sciences: CMLS, 2024)
# Where two headings read alike, the source gives them in different places.
# Assays:
# [1] = molecular target: T1, Tri-heteromeric GluN2A-wt/GluN2B-G689C (Rattus norvegicus, UniProt P35439+Q00959+Q00960, A876H/F846L/G689C/G856D/H848F/K857R/M851T/M860L/Q845K/V861L); assay type: cell-based; conditions: glutamate dose-response
# T1 construct: expressed in transfected cells; host or cells: Xenopus laevis oocytes, mRNA injection
# Source text: (§1) Aliquots were thawed before each experiment.
# [2] = test system: Tri-heteromeric GluN2A-wt/GluN2B-G689C; assay type: cell-based, rat; conditions: compared to GluN2A-wt + GluN2B-wt tri-heteromeric channels
# Source text: as §1
# [3] = molecular target: T2, Tri-heteromeric GluN2A-wt/GluN2B-G689S (Rattus norvegicus, UniProt P35439+Q00959+Q00960, A876H/F846L/G689S/G856D/H848F/K857R/M851T/M860L/Q845K/V861L); assay type: cell-based; conditions: glutamate dose-response
# T2 construct: expressed in transfected cells; host or cells: Xenopus laevis oocytes, mRNA injection
# Source text: as §1
# [4] = test system: Tri-heteromeric GluN2A-wt/GluN2B-G689S; assay type: cell-based, rat; conditions: compared to GluN2A-wt + GluN2B-wt tri-heteromeric channels
# Source text: as §1
# [5] = test system: non-tagged purely di-heteromeric GluN2B-wt; set-up: method as in PMID 32168371; conditions: read-out: Glutamate EC50 (adapted from[16]); non-tagged human receptors; cited from earlier work
# [6] = test system: wt tri-heteromeric GluN2A-wt/GluN2B-wt NMDAR; conditions: glutamate, cited from earlier work
# [7] = test system: Mixed di-heteromeric GluN2A-wt/GluN2A-H485A; set-up: method as in PMID 24607230; conditions: glutamate; ref 8; cited from earlier work
# [8] = test system: Mixed di-heteromeric GluN2A-wt/GluN2A-P552R; set-up: method as in PMID 28095420; conditions: glutamate; ref 32; cited from earlier work
# [9] = test system: Mixed di-heteromeric GluN2A-wt/GluN2A-S644G; set-up: method as in PMID 32577763; conditions: glutamate; ref 19; cited from earlier work
# [10] = test system: Mixed di-heteromeric GluN2A-wt/GluN2A-T690A; set-up: method as in PMID 24607230; conditions: glutamate; ref 8; cited from earlier work
# [11] = test system: Mixed di-heteromeric GluN2A-wt/GluN2A-D731N; set-up: method as in PMID 28182669; conditions: glutamate; ref 33; cited from earlier work
# [12] = test system: Mixed di-heteromeric GluN2B-wt/GluN2B-E413G; set-up: method as in PMID 27839871; conditions: glutamate; ref 21; cited from earlier work
# [13] = test system: Mixed di-heteromeric GluN2B-wt/GluN2B-C461F; set-up: method as in PMID 27839871; conditions: glutamate; ref 21; cited from earlier work
# [14] = test system: Mixed di-heteromeric GluN2B-wt/GluN2B-H486A; set-up: method as in PMID 24607230; conditions: glutamate; ref 8; cited from earlier work
# [15] = test system: Pure variant di-heteromeric GluN2A-S644G; set-up: method as in PMID 32577763; conditions: glutamate; di-heteromer section; cited from earlier work
# [16] = test system: Pure variant di-heteromeric GluN2A-T690A; set-up: method as in PMID 24607230; conditions: glutamate; ref 8; cited from earlier work
# [17] = test system: Pure variant di-heteromeric GluN2A-D731N; set-up: method as in PMID 28182669; conditions: glutamate; ref 33; cited from earlier work
# [18] = test system: Pure variant di-heteromeric GluN2B-E413G; set-up: method as in PMID 27839871; conditions: glutamate; ref 21; cited from earlier work
# [19] = test system: Pure variant di-heteromeric GluN2B-H486A; set-up: method as in PMID 24607230; conditions: glutamate; ref 8; cited from earlier work
# [20] = test system: Pure variant di-heteromeric GluN2B-G543R; set-up: method as in PMID 35110392; conditions: glutamate; ref 10; cited from earlier work
# [21] = test system: Pure variant di-heteromeric GluN2A-E551K; set-up: method as in PMID 35110392; conditions: glutamate; ref 10; cited from earlier work
# [22] = test system: Mixed tri-heteromeric GluN2A-wt/ GluN2B-G543R; set-up: method as in PMID 35110392; conditions: glutamate; ref 10; cited from earlier work
# [23] = test system: Mixed tri-heteromeric GluN2A-wt/ GluN2B-A639V; set-up: method as in PMID 35110392; conditions: glutamate; ref 10; cited from earlier work
# [24] = test system: Mixed tri-heteromeric GluN2A-wt/ GluN2B-M818T; set-up: method as in PMID 35110392; conditions: glutamate; ref 10; cited from earlier work
# [25] = test system: Mixed tri-heteromeric GluN2A-E551K/ GluN2B-wt; set-up: method as in PMID 35110392; conditions: glutamate; ref 10; cited from earlier work
# [26] = test system: Mixed tri-heteromeric GluN2A-S644G/ GluN2B-wt; set-up: method as in PMID 35110392; conditions: glutamate; ref 10; cited from earlier work
# [27] = test system: Mixed tri-heteromeric GluN2A-L649V/ GluN2B-wt; set-up: method as in PMID 35110392; conditions: glutamate; ref 10; cited from earlier work
# [28] = test system: Mixed tri-heteromeric GluN2A-wt/ GluN2B-H486A; set-up: method as in PMID 24607230; conditions: glutamate; ref 8; cited from earlier work
# [29] = test system: Mixed tri-heteromeric GluN2A-H485A/ GluN2B-wt; set-up: method as in PMID 24607230; conditions: glutamate; ref 8; cited from earlier work
# [30] = molecular target: Tri-heteromeric GluN2A-wt/GluN2B-wt (Rattus norvegicus, UniProt P35439+Q00959+Q00960, A876H/F846L/G856D/H848F/K857R/M851T/M860L/Q845K/V861L); assay: TEVC in Xenopus oocytes; conditions: glutamate dose-response
# Procedure: Two electrode voltage clamp (TEVC) recordings were carried out 24–72 h after mRNA injections, as previously described [17, 37]. We use a commercial amplifier (Warner Instruments, USA) and Digitizer (Digidata-1550B; Molecular Devices, USA), controlled by the pClamp10 software (Molecular Devices, USA). Electrode were made by pulling glass capillaries (Narishige, Japan) filled with 3 M KCl, into which we inserted chlorinated silver wires. […] For hERG channel recordings, oocytes were clamped at (− 60) mV for 1 s, followed by a voltage jump to 20 mV for 4 s, and an additional voltage jump to (− 50) mV for 6 s and return to baseline voltage (see Supplementary. 6f), as previously described [53].
# When assessing potentiation by PS, all other solutions also included equal amounts of the DMSO carrier (0.2%).
# Electrophysiology data were analyzed by Clampfit 11.2 (Molecular Devices, USA), plotted using GraphPad 8 or SigmaPlot 11(Systat software, Inc.). […] In all TEVC recordings in oocytes, the responses were normalized to current amplitude obtained from that individual cell. […] All data are shown as mean ± SEM. In all experiments N indicates the number of independent experiments, whereas n indicates the number of cells recorded. In each experiment, data underwent normality test prior to statistical assessment. Normally distributed data were assessed for significance by using paired t-test or one-way ANOVA for multiple group comparison and post hoc Tukey test or Dunnett's test. Similarly, in the case of non-normally distributed data significance was assessed by Mann Whitney test or Kruskal–Wallis ANOVA on ranks test followed by Dunn’s multiple comparison post hoc; n.s., non-significant; *p < 0.05; **p < 0.01; ***p < 0.001. […] Leak expression was evaluated by normalizing the maximal current (Imax) of each ER-retained NMDAR composition to Imax of control group (which was recorded in all experiments). […]
# T1 sequence (Q00960+Q00959 fused with the stated changes, other chains not shown): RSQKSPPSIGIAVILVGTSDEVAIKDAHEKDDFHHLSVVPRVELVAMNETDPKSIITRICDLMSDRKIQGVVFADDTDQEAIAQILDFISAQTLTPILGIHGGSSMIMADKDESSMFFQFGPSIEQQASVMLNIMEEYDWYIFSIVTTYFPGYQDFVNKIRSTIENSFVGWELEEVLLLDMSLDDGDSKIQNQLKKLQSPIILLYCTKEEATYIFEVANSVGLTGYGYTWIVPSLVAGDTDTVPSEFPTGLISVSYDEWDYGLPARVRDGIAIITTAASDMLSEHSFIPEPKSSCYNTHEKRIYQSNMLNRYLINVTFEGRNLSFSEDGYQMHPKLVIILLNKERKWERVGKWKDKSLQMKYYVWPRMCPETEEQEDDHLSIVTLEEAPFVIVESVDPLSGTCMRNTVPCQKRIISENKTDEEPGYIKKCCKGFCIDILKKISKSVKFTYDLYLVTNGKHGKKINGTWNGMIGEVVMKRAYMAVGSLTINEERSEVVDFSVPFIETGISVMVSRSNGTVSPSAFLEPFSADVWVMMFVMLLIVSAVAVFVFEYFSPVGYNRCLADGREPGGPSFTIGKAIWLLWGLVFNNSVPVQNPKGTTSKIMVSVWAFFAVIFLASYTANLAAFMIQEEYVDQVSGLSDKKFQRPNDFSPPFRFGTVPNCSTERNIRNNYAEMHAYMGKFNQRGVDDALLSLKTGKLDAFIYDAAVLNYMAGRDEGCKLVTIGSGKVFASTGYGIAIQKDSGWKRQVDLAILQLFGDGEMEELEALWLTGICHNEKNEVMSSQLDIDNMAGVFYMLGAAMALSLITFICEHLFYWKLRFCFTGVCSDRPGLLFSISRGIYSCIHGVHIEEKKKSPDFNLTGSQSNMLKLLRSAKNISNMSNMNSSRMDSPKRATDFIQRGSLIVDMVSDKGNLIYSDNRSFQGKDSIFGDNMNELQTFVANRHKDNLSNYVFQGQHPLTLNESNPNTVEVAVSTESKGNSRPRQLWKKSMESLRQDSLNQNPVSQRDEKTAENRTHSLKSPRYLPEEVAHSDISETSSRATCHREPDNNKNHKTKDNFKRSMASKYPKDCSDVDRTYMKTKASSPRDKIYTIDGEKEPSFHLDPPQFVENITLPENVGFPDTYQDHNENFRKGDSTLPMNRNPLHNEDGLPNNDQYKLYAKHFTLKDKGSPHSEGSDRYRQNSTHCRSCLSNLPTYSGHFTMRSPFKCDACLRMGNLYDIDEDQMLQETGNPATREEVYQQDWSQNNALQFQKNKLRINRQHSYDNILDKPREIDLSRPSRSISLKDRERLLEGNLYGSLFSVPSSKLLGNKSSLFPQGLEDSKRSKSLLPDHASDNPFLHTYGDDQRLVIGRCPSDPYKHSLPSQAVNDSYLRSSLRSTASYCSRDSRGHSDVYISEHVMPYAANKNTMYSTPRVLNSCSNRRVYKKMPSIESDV
# T1 sequence (Q00959 23-1464, other chains not shown): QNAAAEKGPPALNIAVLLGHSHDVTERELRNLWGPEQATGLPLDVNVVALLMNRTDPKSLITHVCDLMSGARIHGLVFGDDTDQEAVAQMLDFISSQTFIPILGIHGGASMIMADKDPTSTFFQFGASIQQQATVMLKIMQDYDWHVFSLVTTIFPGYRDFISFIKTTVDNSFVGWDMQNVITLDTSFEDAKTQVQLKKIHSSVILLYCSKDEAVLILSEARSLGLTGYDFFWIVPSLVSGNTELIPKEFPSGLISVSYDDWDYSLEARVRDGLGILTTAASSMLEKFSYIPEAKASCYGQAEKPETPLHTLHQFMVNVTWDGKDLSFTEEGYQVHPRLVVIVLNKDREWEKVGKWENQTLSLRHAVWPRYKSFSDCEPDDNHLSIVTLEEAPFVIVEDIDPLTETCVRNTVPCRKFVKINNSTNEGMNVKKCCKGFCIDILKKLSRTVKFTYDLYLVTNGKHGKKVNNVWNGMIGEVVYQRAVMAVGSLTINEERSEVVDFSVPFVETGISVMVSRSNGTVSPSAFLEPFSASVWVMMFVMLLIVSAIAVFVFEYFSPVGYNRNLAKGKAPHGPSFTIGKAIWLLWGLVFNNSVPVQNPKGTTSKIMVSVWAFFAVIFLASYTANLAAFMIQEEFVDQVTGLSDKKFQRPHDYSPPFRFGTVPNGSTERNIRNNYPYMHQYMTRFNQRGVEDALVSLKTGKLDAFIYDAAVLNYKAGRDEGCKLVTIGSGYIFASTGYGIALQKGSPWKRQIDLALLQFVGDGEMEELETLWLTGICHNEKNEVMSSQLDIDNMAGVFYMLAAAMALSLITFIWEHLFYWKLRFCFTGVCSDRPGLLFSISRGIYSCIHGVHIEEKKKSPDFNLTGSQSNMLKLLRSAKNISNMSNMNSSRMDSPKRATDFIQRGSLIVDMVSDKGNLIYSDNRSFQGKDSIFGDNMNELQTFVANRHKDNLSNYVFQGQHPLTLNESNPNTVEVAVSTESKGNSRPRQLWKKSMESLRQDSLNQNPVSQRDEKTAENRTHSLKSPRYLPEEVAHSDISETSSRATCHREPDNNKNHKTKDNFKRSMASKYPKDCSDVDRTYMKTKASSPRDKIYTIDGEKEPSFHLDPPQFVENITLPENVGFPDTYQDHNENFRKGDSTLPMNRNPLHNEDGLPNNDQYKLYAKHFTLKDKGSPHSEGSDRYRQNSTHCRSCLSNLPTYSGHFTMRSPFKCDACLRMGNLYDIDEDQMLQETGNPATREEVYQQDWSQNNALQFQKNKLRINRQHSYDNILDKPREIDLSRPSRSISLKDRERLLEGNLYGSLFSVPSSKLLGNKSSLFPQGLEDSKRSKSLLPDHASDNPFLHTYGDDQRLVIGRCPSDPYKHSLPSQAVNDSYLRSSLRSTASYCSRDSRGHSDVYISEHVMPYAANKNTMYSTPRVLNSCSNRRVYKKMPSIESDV
smiles,measurement,setting,value
"N[C@@H](CCC(=O)O)C(=O)O [Glutamate, glutamate]",Hill coefficient (nH),[1],"0.85 ± 0.14 n.s (N = 1, n = 10)"
same,increase in EC50,[2],~ 300 fold
same,Hill coefficient (nH),[3],"1.06 ± 0.13 n.s (N = 1, n = 11)"
same,increase in EC50,[4],~ 600 fold
same,EC50,[5],1.4 ± 0.1 µM
same,EC50,[6]; ref 8,2.6 µM
same,EC50,[6]; ref 10,2.2 µM
same,EC50,[7],220 µM
same,EC50,[8],1.2 µM
same,EC50,[9],0.7 µM
same,EC50,[10],660 µM
same,EC50,[11],6450 µM
same,EC50,[12],21 µM
same,EC50,[13],61 µM
same,EC50,[14],75 µM
same,EC50,[15],0.05 µM
same,EC50,[16],2700 µM
same,EC50,[17],30000 µM
same,EC50,[18],82 µM
same,EC50,[19],460 µM
same,EC50,[20],0.22 µM
same,EC50,[21],0.47 µM
same,EC50,[22],1.9 µM
same,EC50,[23],0.58 µM
same,EC50,[24],0.96 µM
same,EC50,[25],0.7 µM
same,EC50,[26],0.49 µM
same,EC50,[27],0.36 µM
same,EC50,[28],140 µM
same,EC50,[29],210 µM
same,Hill coefficient (nH),[30],"0.77 ± 0.22 (N = 3, n = 33)"
